Reference: patent publication US20230073755A1, “USE OF IGF1 IN COMBINATION WITH IGFEC24 IN PREPARATION OF MEDICINE FOR PROMOTING TISSUE REPAIR AND REGENERATION” (Chongqing University, priority 2020, published 2023)

Tests used:
[1] = tested on: neuronal cells; experiment: Neuroproliferation effect (Edu / DCX immunofluorescence, hippocampal dentate gyrus), adult female SD rats; format: in vivo; details: FIG. 4
Experimental: In certain embodiments, adult female SD rats were divided into five groups: PBS group, IGF1 group, IGF1Ec group, IGF1-24 group, and IGF1+IGF1Ec24 peptide group, with three rats in each group. The rats in each group were distinguished by ear clipping for subsequent protein injection according to the different body weights of the rats.
The rats in each group were injected with PBS, IGF1, IGF1Ec24 peptide, IGF1Ec and IGF1-24 for 7 consecutive days. Recombinant protein IGF1-24 was injected at 100 μg/kg, and the injection of the remaining proteins in each group was converted according to the molar amount of IGF1-24 injection as follows: 90 μg/kg for IGF1, 8.9 μg/kg for IGF1Ec24 peptide, 104 μg/kg for IGF1Ec.
After seven days of protein injection, the intraperitoneal injection of Edu solution at a concentration of 2.5 mg/kg was performed for seven days, so that the final total dose of each rat reached 50 mg/kg. […]
The microscope was selected with a 20× lens to observe the fluorescence staining of the dentate gyrus in the whole hippocampal region; the number of immature neurons and the number of newly proliferating neuronal cells in the dentate gyrus of the hippocampus were recorded.

[2] = tested on: myocardial tissue; experiment: Myocardial injury repair in rat model of isoproterenol (ISO) myocardial injury; format: in vivo
Experimental: The rats were randomly selected and assigned into injection and control groups, with three rats in each group. The myocardial injury model was constructed by injecting an overdose of ISO at a dose of 80 mg/kg. The rats were fixed with a fixator to expose the abdomen; the rats were disinfected by wiping with alcohol cotton balls, and the amount of ISO injected was matched to their body weight, and then the rats were injected intraperitoneally for 1 week.
The rat was fixed with a fixator to keep its tail naturally down; before injection, the rat's tail was soaked in warm water for 3-4 min until the tail vein was seen clearly; then the rat's tail was wiped with an alcohol cotton ball for disinfection; then, when injecting the protein, the needle was injected at a minimal angle to the tail vein to keep it horizontal; after pushing the drug into the blood vessel, the wound was pressed with an alcohol cotton ball, and then the needle was withdrawn.
In order to fully remove the paraffin from the top of the slices, Paraffin sections of myocardial tissues were completely immersed in xylene twice, each time for 15 min; then the paraffin sections of cardiac tissues were placed into 100% ethanol solution, 95% ethanol solution, 75% ethanol solution, 50% ethanol solution and 3dH2O in turn, with a soaking time of 10 min for each gradient. The paraffin sections were removed and hematoxylin was added dropwise at the myocardial tissue in the sections for nuclear staining with a staining time of 8 min. immediately after the staining was completed, the sections were rinsed with tap water for 5 min, then differentiation solution was added dropwise at the myocardial tissue in the sections with a differentiation time of 20 s, and finally the sections were rinsed with tap water for 5 min. the sections were removed and eosin staining solution was added dropwise at the tissue with a staining time of 1 min, and finally the sections were rinsed with tap water Rinse the slices for 5 min. soak the paraffin sections according to a gradient of 50%, 75%, 95% and 100% ethanol, each for 5 min; then soak them twice in xylene for 2 min/time. Paraffin sections were removed from xylene, keeping xylene still retained on the sections; neutral gum was quickly added dropwise, and coverslips were picked up with forceps, and the coverslips were put down slowly.
The sections were soaked in xylene twice for 15 min/time; soaked sequentially according to a gradient of anhydrous ethanol, 95%, 75% and 50% alcohol solutions, each gradient for 5 min; finally the sections were soaked in triple distilled water for 5 min. equal amounts of Weigert iron hematoxylin A solution and B solution were mixed, and the mixture was added dropwise to the tissues, stained The sections were removed, and differentiation solution was added dropwise to the myocardial tissue for 20 s, and rinsed with tap water for 5 min. bluing solution was added dropwise to the tissue of the sections, and returned to blue treatment for 5 min, and rinsed with tap water for 5 min. lixin red magenta staining solution was added dropwise to the tissue of the sections, and staining time was 1 min, and rinsed with tap water for 5 min. 20% of Add phosphomolybdic acid solution dropwise on the tissue, stain for 5 min, pour off the phosphomolybdic acid solution on the section. Aniline blue staining solution was added dropwise for 5 min to re-stain the sections, and the aniline blue solution on the sections was poured off. […]

## IGF1-24: 97 amino acids: amino-terminal 70 identical to IGF1, carboxyl-terminal 24 identical to IGFEc24 peptide, joined by three Gly linkers (SEQ ID NO: 4)
[1]
  proliferation of neuronal cells: 10%
[2]; ISO+IGF1-24-treated group vs ISO-injured group, FIG. 12
  Masson staining: area of cardiac fibrosis: significantly reduced
[2]; ISO+IGF1-24 group compared with ISO+PBS group, FIG. 10
  HE staining of cardiac tissue: repair effect: the repair effect was obvious
[2]; after ISO injury and IGF1-24 treatment, injury without treatment 0.1%, FIG. 13A-B
  rate of PH3 positive cells in myocardial tissue: 0.8%
[2]; after ISO injury and IGF1-24 treatment, injury without treatment 0.5%, FIG. 13A-B
  rate of Edu positive cells in myocardial tissue: 1.4%
[2]; treatment group vs injury group, FIG. 13C
  number of Ki67-positive cells (immunohistochemistry of heart tissue): differed significantly
